Reference: PMC11327196, “A phase 1 study to assess the absolute bioavailability, mass balance, pharmacokinetics, metabolism, and excretion of [^14C]-mobocertinib, an oral inhibitor of EGFR exon 20 insertion mutations, in healthy participants” (Investigational New Drugs, 2024)

What was measured:
[1] = test system: platinum-pretreated EGFRex20ins mutation positive locally advanced or metastatic NSCLC; parameters: method as in PMID 34647988; details: 114 patients, mobocertinib 160 mg orally qd; cited from earlier work
[2] = Period 2 human ADME study: whole blood PK after oral solution [14C]-mobocertinib; assay type: in vivo
Experimental: This was a two-period, open-label, single-dose phase 1 study (NCT03811834) conducted at one clinical site (Celerion, Lincoln, Nebraska, USA) in healthy male participants. The primary objective of Period 1 was to determine the absolute bioavailability of mobocertinib following a single oral dose of 160 mg mobocertinib as capsules and a single intravenous (IV) microdose of 50 µg (~ 2 µCi) [^14C]-mobocertinib. The primary objectives of Period 2 were to (1) assess the cumulative excretion of total radioactivity in urine and feces (mass balance); (2) assess the metabolite profile of mobocertinib in plasma, urine, and feces; and (3) characterize the PK of mobocertinib, AP32960, and AP32914 in plasma, whole blood, and urine, and total radioactivity concentration equivalents in plasma and whole blood following a single oral dose of 160 mg (~ 100 µCi) [^14C]-mobocertinib as an oral solution. A sample size of 6 healthy males was selected without statistical considerations and deemed adequate to meet the study objectives. Furthermore, the sample size was limited based on clinical considerations for human ADME studies and to limit exposure to radioactivity.
After a washout of 8–9 days, participants returned to the clinic for Day − 1 of Period 2. On Day 1 of Period 2, after a fast of ≥ 10 h, participants received a single nominal dose of 160 mg (~ 100 µCi; whole body effective dose of 5.3 mrem for a 70-kg human) [^14C]-mobocertinib as a 70 mL oral solution. The actual doses administered ranged from 161 to 163 mg (92.4 to 93.9 µCi). Participants stayed in the clinic from Day − 1 until a discharge criterion (≥ 80% of the total administered radioactive dose was recovered in urine and feces or excretion of radioactivity in urine and feces combined had declined to ≤ 1% of the total administered dose per day for ≥ 2 consecutive intervals) was met, or up to 10 days postdose. To measure the total radioactivity and concentrations of mobocertinib, AP32960, and AP32914 in whole blood and plasma, 4 blood samples were collected predose, and at 0.5, 1, 2, 3, 4, 5, 6, 8, 12, 24, 36, 48, 72, 96, 120, 144, 168, 192, 216, and 240 h postdose; a fifth blood sample was collected for plasma metabolite profiling at predose and 1, 2, 4, 6, 12, 24, 48, 72, 96, 120, and 168 h postdose. Feces and urine were collected predose (feces within 48 h and urine within 24 h prior to dosing), 0–24 h (urine from 0–12 and 12–24 h), and then at 24-hour intervals up to 240 h postdose or until a discharge criterion was met. […] These 2 participants continued with at-home fecal sample collections. One participant provided fecal samples until Day 13 (264–288 h interval) and one participant provided fecal samples until Day 19 (408–432 h interval), after which they met a discharge criterion.
Plasma, whole blood, and urine samples were assayed for mobocertinib, AP32960, and AP32914 concentrations using liquid chromatography-tandem mass spectrometry (Q2 Solutions, Ithaca, New York, USA). The analytical range for each analyte was 0.250 to 500 ng/mL in whole blood and plasma, and 1.00 to 1000 ng/mL in urine. […] Urine and fecal samples were assayed for total radioactivity following the IV dose of [^14C]-mobocertinib in Period 1, and whole blood, plasma, urine, and fecal samples were assayed for total radioactivity following the oral dose of [^14C]-mobocertinib in Period 2 using liquid scintillation counting (LSC; Celerion, Lincoln, Nebraska, USA; LLOQs: Period 1 urine: 0.115–0.118 ng eq/g, feces: 0.720–0.759 ng eq/g; Period 2 whole blood: 87.3–112 ng eq/g, plasma: 116–132 ng eq/mL, urine: 37.8–46.8 ng eq/g, feces: 110–336 ng eq/g across participants). Urine and fecal samples collected in Period 1 that had total radioactivity concentration equivalents below the LLOQ of the Celerion LSC assay were sent to Pharmaron for measurement by AMS (LLOQ: urine: 0.0000253–0.00111 ng eq/g; feces: 0.000404–0.0278 ng eq/g across participants). The LSC and AMS assays were not cross-validated. […]

[3] = Period 2, oral solution 160 mg [14C]-mobocertinib, whole blood, geometric mean (geometric CV%)
[4] = Period 2, oral solution 160 mg [14C]-mobocertinib, blood-to-plasma, geometric mean (geometric CV%)
[5] = male, human, Period 2, oral solution 160 mg [14C]-mobocertinib, whole blood, geometric mean (geometric CV%)

C=CC(=O)Nc1cc(Nc2ncc(C(=O)OC(C)C)c(-c3cn(C)c4ccccc34)n2)c(OC)cc1N(C)CCN(C)C [Mobocertinib]
median duration of response [1]: 17.5 months
median overall survival [1]: 24.0 months
median progression-free survival [1]: 7.3 months
objective response rate per independent-review committee [1]: 28%
geometric mean AUC∞ lower in whole blood compared to plasma ([2]; Period 2, oral solution 160 mg [14C]-mobocertinib): 24%
CL/F [2, 3]: 222 (32.6) L/h
Molar AUC∞ ratio (analyte vs. total radioactivity) [2, 3]: 0.00224 (28.3)
t1/2z [2, 3]: 20.5 (25.4) h
B:P Ratio AUC∞ [2, 4]: 0.763 (17.7)
B:P Ratio Cmax [2, 4]: 0.794 (17.1)
tmax ([2]; Period 2, single oral solution 160 mg (~100 µCi) [14C]-mobocertinib, whole blood, median (range)): 5.0 (2.0–6.0) h
blood plasma ratio ([2]; male, human, whole blood and plasma, Period 2, oral solution 160 mg [14C]-mobocertinib, range over time, read-out: arithmetic mean blood-to-plasma (B:P) concentration ratios): 0.6 to 1.04
AUC(0-inf) [2, 5]: 0.729 µg·h/mL
AUC(0-t) [2, 5]: 0.718 µg·h/mL
Cmax [2, 5]: 0.0405 µg/mL
Vd/F ([2]; male, human, Period 2, oral solution 160 mg [14C]-mobocertinib, whole blood, geometric mean (geometric CV%), read-out: Vz/F): 6550 L
